{"source": "patent US10905680B2", "about": "“Methods of treatment for cholestatic and fibrotic diseases” (Genfit, priority 2016, dated 2021)", "key": {"[1]": {"tested_on": "Normal Human Lung Fibroblasts (NHLF)", "assay": "TGFβ1-induced expression of α-SMA protein in human lung fibroblasts (ELISA)", "type": "cell-based", "conditions": "concentration of 1 μM; TGFβ1 1 ng/ml, 48 hours", "protocol": "NTZ (A) or TZ (B) was added to serum-deprived lung fibroblasts (NHLF) 1 hour before the activation with TGFβ1 (1 ng/ml). After 48 hours of incubation, the expression of α-SMA was measured by ELISA. The obtained values were transformed into percentage inhibition over TGFβ1 control. Data are presented as mean (triplicates)±standard deviation (SD). Statistical analyses were performed by one-way ANOVA followed by Bonferroni post-hoc tests, using Sigma Plot 11.0 software. [*: p<0.05; **: p<0.01; ***: p<0.001 (comparison versus TGFβ1 1 ng/mL group)].\nThe Normal Human Lung Fibroblasts (NHLF) (Lonza) were cultured in Fibroblast Basal Medium (FBM) (Lonza cat # CC-3131) that was supplemented with FGM-2 SingleQuots™ Kit (Lonza cat # CC-3132). The complete medium contains 2% fetal bovine serum. For the activation experiments with TGFβ1, the NHLF were plated at a density of 5×10^3 cells per well in 96-well plates. The next day, cell-culture medium was removed, and cells were washed with PBS (Invitrogen cat #14190). NHLF were deprived for 24 hours in serum-free, insulin-free and rhFGF-B-free medium. […]\nThe level of α-SMA was measured using a Sandwich ELISA. […]"}, "[2]": {"tested_on": "human primary hepatic stellate cells (hHSC)", "assay": "COL1A1 transcripts in TGFβ1-induced human HSC (RT-qPCR)", "type": "cell-based", "conditions": "TGFβ1 1 ng/ml, 24 hours", "protocol": "Serum-deprived HSC were preincubated for 1 hour with NTZ (A) or TZ (B) before the activation with TGFβ1 (1 ng/ml). After 24 hours of incubation, the expression of COL1A1 was measured by RT-qPCR. Expression values were transformed into fold induction over TGFβ1 control. Data are presented as mean (triplicates)±standard deviation (SD). Statistical analyses were performed by one-way ANOVA followed by Bonferroni post-hoc tests, using Sigma Plot 11.0 software. [*: p<0.05; **: p<0.01; ***: p<0.001 (comparison versus TGFβ1 1 ng/mL group)]. The human primary hepatic stellate cells (hHSC) (Innoprot) were cultured under standard conditions, as described above. The cells were subsequently plated at a density of 7×10^4 cells/well into 24-well plates for gene expression studies, and at a density of 2×10^4 cells/well into 96-well plates for the measure of α-SMA by ELISA. The next day, cell culture medium was removed, and cells were washed with PBS (Invitrogen cat #14190). hHSC were deprived for 24 hours in serum-free and SteCGS-free medium. […] Quantitative PCR was then carried out using the MyiQ Single-Color Real-Time PCR Detection System (Biorad). […] Expression levels were determined using the standard curve equation for both the housekeeping gene and the target gene (taking into account the specific PCR efficiency of each target gene)."}}, "data": [{"smiles": "O=C(Nc1ncc([N+](=O)[O-])s1)c1ccccc1O", "note": "[TZ, 2-hydroxy-N-(5-nitro-2-thiazolyl)benzamide]", "values": [{"measurement": "antifibrotic effects (α-SMA) in normal human lung fibroblasts", "setting": "[1]", "result": "significant antifibrotic effects"}, {"measurement": "COL1A1 transcripts", "setting": "[2]", "result": "reduce"}]}]}
